Here are results for one compound from patent US11752133B2, “Use of bromophenol-pyrazoline compounds in the treatment of porcine coronavirus diseases” (priority 2020, dated 2023).

Values joined by “and” are separate entries in the source; they are usually repeats but may differ in a detail not shown here. Equal entries are not always repeated.

The test system of assay [1] is porcine epidemic diarrhea virus (PEDV). Description: Inhibition of PEDV replication in infected Vero E6 cells (vRNA in supernatant by qRT-PCR). It counts as cell-based. Conditions: 10 μM and 2 μM, MOI 0.05, 24 h, FIG. 1. On the procedure: This Example evaluated whether bromophenol-pyrazoline compounds can inhibit replication of porcine coronavirus in Vero E6 cells infected with clinically isolated strains of porcine epidemic diarrhea virus (PEDV).
Specific operation: pre-seeded Vero E6 cells (5×10^4 cells/well) were respectively pretreated for 1 h with different concentrations of bromophenol-pyrazoline compounds to be tested (2 μM and 10 μM), and then infected with porcine coronavirus (PEDV; MOI: 0.05) for 2 h. Then, a virus-compound mixture was removed, and the cells were further cultured with a fresh medium containing the bromophenol-pyrazoline compound. After 24 hours, a cell supernatant was collected, and vRNA in the supernatant was analyzed by qRT-PCR. The treatment without a bromophenol-pyrazoline compound was used as a control.

The test system of assay [2] is porcine transmissible gastroenteritis virus (TGEV). Briefly: Inhibition of TGEV replication in infected Vero E6 cells (vRNA in supernatant by qRT-PCR). Format: cell-based. Conditions: 10 μM and 2 μM, MOI 0.05, 24 h, FIG. 2. As for the experimental part: This Example evaluated whether bromophenol-pyrazoline compounds can inhibit replication of porcine coronavirus in Vero E6 cells infected with clinically isolated strains of porcine transmissible gastroenteritis virus (TGEV).
Specific operation: pre-seeded Vero E6 cells (5×10^4 cells/well) were respectively pretreated for 1 h with different concentrations of bromophenol-pyrazoline compounds to be tested (2 μM and 10 μM), and then infected with porcine coronavirus (TGEV; MOI: 0.05) for 2 h. Then, a virus-compound mixture was removed, and the cells were further cultured with a fresh medium containing the bromophenol-pyrazoline compound. After 24 hours, a cell supernatant was collected, and vRNA in the supernatant was analyzed by qRT-PCR. The treatment without a bromophenol-pyrazoline compound was used as a control.
(Real-time PCR tracks product formation cycle by cycle.)

In assay [3] the test system is porcine epidemic diarrhea virus. Description: Clinical trial in diseased pigs with epidemic diarrhea (PEDV infection). Format: in vivo, pig. The following applies: for Diarrhea Scoring Index: individual pigs, 0 formed manure, 1 thick not formed, 2 manure and water separation, 3 watery manure; for Effective rate / Number of deaths / Mortality rate: diseased pigs within 10 days of age; for Effective rate: 72 h, based on diarrhea scoring index; for Number of deaths: 72 h observation, treatment twice a day; for Mortality rate: piglet deaths at end of 72 h test. On the procedure:
Through the PCR detection of diseased pig tissues at Zhucheng Pig Farm in November 2020, the type of viral infection was determined.
Diseased pigs with epidemic diarrhea within 10 days of age were selected and randomly divided into 4 groups, i.e. untreated group, traditional Chinese medicine treatment group, compound 4 treatment group and lgY antibody treatment group, respectively. The traditional Chinese medicine treatment group was drenched with a compound decoction consisting of dandelion, Chinese violet, coptis, isatis root, etc., twice a day for 3 consecutive days. Compound 4 was taken at a dose of 25 mg/pig after being dissolved in a dextrose solution, twice a day. The lgY antibody treatment group was fed with chicken egg antibodies (lgY), twice a day. The untreated group, the traditional Chinese medicine treatment group and the lgY antibody treatment group were respectively drenched with the same dose of the glucose solution as the compound 4 treatment group. The pigs were breast-fed during treatment.
During the clinical treatment of the diseased pigs with epidemic diarrhea, the diarrhea indexes of the diseased pigs in the untreated group (6 pigs), the compound 4 treatment group (8 pigs) and the lgY antibody treatment group (6 pigs) were scored through sampling.

As for `CC(C)(C)c1ccc(Oc2ccc(C3=NN(C(N)=S)C(c4ccc(O)c(O)c4)C3)cc2)cc1` (centres unmarked) [Compound 4], in assay [1], the “inhibitory activity against replication of PEDV (viral RNA)” value is listed as “strongest inhibitory activity”. In assay [2], the “inhibitory activity against replication of TGEV (viral RNA)” value is “strongest inhibitory activity”. In addition, the alleviation of diarrhea result in assay [3] (8 scored diseased pigs, 24 h after oral administration) is “significantly alleviated diarrhea”. The curative ratio in assay [3] (8 scored diseased pigs, 72 h after oral administration) came to 100%. The “Diarrhea Scoring Index” value in assay [3] (12 h after administration) was 3 (7×) and 2; in assay [3] (24 h after administration), 2 (7×) and 1; in assay [3] (48 h after administration) it was 0 (5×) and 1 (2×) and 2; in assay [3] (72 h after administration), 0. The Effective rate in assay [3] and in assay [3] (listed as compound 4) was 100% each time. Besides, the Number of deaths is 0 in assay [3] and “no pig died” in assay [3] (listed as compound 4). Further, the Mortality rate in assay [3] and in assay [3] (listed as compound 4) was 0% in each case.
